Measured values published in patent US9458141B2, “Low molecular weight thyroid stimulating hormone receptor (TSHR) agonists” (The United States of America, as represented by the …, priority 2008, dated 2016).
Where two headings read alike, the source gives them in different places.

Assays:
human TSHR [1] = target: T1, human TSHR (Homo sapiens, UniProt P16473); experiment: Confirmatory cAMP assay, HEK EM 293 cells stably expressing TSHR; format: cell-based; settings: 1 h incubation, 1 mM IBMX
T1 construct: expressed in transfected cells
From the text: cDNA for human TSHR was amplified by PCR from hTSHR-pSVL (1) and inserted into the pcDNA3.1(−)/hygromycin vector using restriction sites XhoI and BamHI. cDNA for human LHCGR was amplified by PCR from hLHR-pGS5 (2) and was inserted into the pcDNA3.1(+)/hygromycin vector using restriction sites BamHI and XhoI. The FSHR cDNA in pcDNA3.1 was obtained from the Missouri S&T cDNA Resource Center (www.cDNA.org) and was subcloned into the pcDNA3.1(−)/hygromycin vector. Constructs were confirmed by sequencing (MWG Biotech). HEK-EM 293 cells were transfected with the cDNA of TSHR, LHCGR or FSHR using FuGENE 6 Transfection reagent (Roche Diagnostics) according to the manufacturer's protocol. Two days after transfection cells were passaged and grown in Dulbecco's modified Eagle's Medium (DMEM) supplemented with 10% fetal bovine serum, 100 units/ml penicillin and 10 μg/ml streptomycin (Life Technologies Inc.) and with hygromycin (250 μg/ml) as a selection marker. After 7 to 10 days hygromycin-resistant clones were selected, and after a few days of further growth submitted for a cAMP assay to identify clones that stably express the appropriate receptor. Cell Culture. Cells stably expressing TSHR, LHCGR or FSHR and parental HEK 293 cells were maintained in DMEM medium containing 10% FBS, 100 units/ml Penicillin, 100 μg/ml Streptomycin, at 37° C. in 5% CO2. For the cells lines stably expressing TSHR, LHCGR or FSHR, additional 250 μg/ml Hygromycin was added during the cell culture. The cells were seeded at a density of 3 to 4 million cells in a T175 flask containing 35 ml of media and were allowed to grow for 3 days to reach 80-90% confluence. A flask of HEK 293 cells at this density generally yielded 30 million cells total. Homogeneous Time Resolved Fluorescence (HTRF) cAMP Assay. Compounds were assayed using a HTRF cAMP detection kit (Cisbio, Bedford, Mass.) on both TSHR cell line and parental cell line. Briefly, 750 cells were plated in 2.5 μl/well of complete media (DMEM containing 10% FCS) in 1536 well solid bottom white plates and 20 nl/well compound in DMSO solution or controls was added. Following 30 minute incubation at room temperature, 2.5 μl/well of labeled d2 cAMP and 2.5 μl/well of anti-cAMP antibody (both diluted 1:20 in lysis buffer) were added to each well using a flying reagent dispenser (Aurora Discovery, San Diego). Plates were measured using the Envision plate reader (PerkinElmer, Boston, Mass.) with excitation at 330 nm and emissions of 615 nm and 660 nm. Compound Preparation. […] Data Analysis. […] The EC50 values of compounds were calculated from the concentration-response curves by nonlinear regression analysis using Prism software (GraphPad Software, San Diego, Calif.). Confirmatory cAMP Assay and Test for Selectivity Towards TSHR 50,000 cells/well were plated in complete media (DMEM containing 10% FCS) in 96 well plates. […] Following aspiration of the medium after incubation with compounds, cells were lysed using lysis buffer of the cAMP-Screen Direct™ System (Applied Biosystems, Cat # CSD200). The cAMP content of the cell lysate was determined using the manufacturer's protocol. […] Below is a List of Compounds that were Assayed via the Homogeneous Time Resolved Fluorescence (HTRF) cAMP Assay.

human TSHR [2] = target: T1, human TSHR; experiment: Homogeneous Time Resolved Fluorescence (HTRF) cAMP assay, TSHR cell line; format: cell-based; settings: for AC50: HTRF cAMP, TSHR cell line, 30 minute incubation; for Maximum Activity compared to TSH: 100% activity = response of 30 mU/ml TSH, 0% = DMSO control, in %

T1 sequence (P16473 21-764): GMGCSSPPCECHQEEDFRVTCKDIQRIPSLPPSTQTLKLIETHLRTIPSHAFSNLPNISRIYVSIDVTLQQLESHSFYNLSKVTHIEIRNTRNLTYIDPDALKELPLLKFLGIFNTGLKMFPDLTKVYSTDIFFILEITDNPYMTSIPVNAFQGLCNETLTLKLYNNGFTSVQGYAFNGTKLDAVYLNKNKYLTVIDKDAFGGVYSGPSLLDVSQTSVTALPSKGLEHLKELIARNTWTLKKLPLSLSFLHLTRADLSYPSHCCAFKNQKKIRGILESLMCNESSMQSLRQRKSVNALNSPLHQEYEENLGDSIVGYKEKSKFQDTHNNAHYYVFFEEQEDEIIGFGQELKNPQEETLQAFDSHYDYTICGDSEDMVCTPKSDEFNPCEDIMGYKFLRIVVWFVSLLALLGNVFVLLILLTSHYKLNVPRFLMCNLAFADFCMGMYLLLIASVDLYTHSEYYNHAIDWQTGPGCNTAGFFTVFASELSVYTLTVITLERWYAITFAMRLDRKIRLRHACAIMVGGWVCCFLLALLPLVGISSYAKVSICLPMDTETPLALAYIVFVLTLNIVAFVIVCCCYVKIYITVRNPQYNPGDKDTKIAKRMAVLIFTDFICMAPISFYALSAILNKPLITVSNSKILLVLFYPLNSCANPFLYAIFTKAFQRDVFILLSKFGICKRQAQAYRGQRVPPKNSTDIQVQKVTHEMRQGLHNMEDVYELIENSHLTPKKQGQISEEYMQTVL

| Structure (SMILES) | AC50 (human TSHR [2]) | Maximum Activity compared to TSH (human TSHR [2]) | AC50 (human TSHR [2]; read-out: AC50) [µM] | further results |
| --- | --- | --- | --- | --- |
| COc1ccc(C2Nc3ccccc3C(=O)N2Cc2ccco2)cc1COc1ccc(NC(C)=O)cc1 (stereo not drawn) [Compound 3, N-(4-(5-(3-(Furan-2-ylmethyl)-4-oxo-1,2,3,4-tetrahydroquinazolin-2-yl)-2-methoxybenzyloxy)phenyl)acetamide] |  |  |  | EC50 (human TSHR [1]): 0.59 µM |
| COc1ccc(-c2nc3ccccc3c(=O)n2Cc2ccco2)cc1COc1ccc(NC(C)=O)cc1 [Compound 3/1, N-(4-(5-(3-(Furan-2-ylmethyl)-4-oxo-3,4-dihydroquinazolin-2-yl)-2-methoxybenzyloxy)phenyl)acetamide] |  |  |  | EC50 (human TSHR [1]): 0.1 µM |
| COc1ccc(C2Nc3ccccc3C(=O)N2Cc2ccccc2)cc1COc1ccc(NC(C)=O)cc1 (stereo not drawn) [Compound 3/2, N-(4-(5-(3-Benzyl-4-oxo-1,2,3,4-tetrahydroquinazolin-2-yl)-2-methoxybenzyloxy)phenyl)acetamide] |  |  |  | EC50 (human TSHR [1]): 0.541 µM |
| COc1ccc(C2Nc3cccc(O)c3C(=O)N2Cc2ccccc2)cc1COc1ccc(NC(C)=O)cc1 (stereo not drawn) [Compound 3/4, N-(4-(5-(3-Benzyl-5-hydroxy-4-oxo-1,2,3,4-tetrahydroquinazolin-2-yl)-2-methoxybenzyloxy)phenyl)acetamide] |  |  |  | EC50 (human TSHR [1]): 0.025 µM |
| COc1ccc(C2Nc3ccccc3C(=O)N2Cc2ccccc2)cc1CSc1ccc(NC(C)=O)cc1 (stereo not drawn) [Compound 3/5, N-(4-(5-(3-Benzyl-4-oxo-1,2,3,4-tetrahydroquinazolin-2-yl)-2-methoxybenzylthio)phenyl)acetamide] |  |  |  | EC50 (human TSHR [1]): 0.038 µM |
| COc1ccc(-c2nc3ccc(NC(=O)COC(C)=O)cc3c(=O)n2Cc2ccccc2)cc1COc1ccc(NC(C)=O)cc1 [Structure 261] | inactive |  |  |  |
| COc1ccc(C2Nc3ccccc3C(=O)N2Cc2ccccc2C(F)(F)F)cc1COc1ccc(NC(C)=O)cc1 (stereo not drawn) [Structure 265] |  | 24.00 | 6.31 |  |
| COc1ccc(C2Nc3ccccc3C(=O)N2Cc2ccco2)cc1COc1ccccc1 (stereo not drawn) [Structure 266] | inactive |  |  |  |
| COc1ccc(C2N(Cc3ccccc3)C(=O)c3ccccc3N2C)cc1COc1ccc(NC(C)=O)cc1 (stereo not drawn) [Structure 267] |  | 24.50 | 7.94 |  |
| COc1ccc(C2Nc3ccccc3C(=O)N2Cc2ccccn2)cc1COc1ccc(NC(C)=O)cc1 (stereo not drawn) [Structure 269] |  | 28.00 | 25.1 |  |
| COc1ccc(CN(Cc2ccccc2)C(=O)c2ccccc2O)cc1 [Structure 271] | inactive |  |  |  |
| COc1ccc(C2Nc3ccccc3C(=O)N2Cc2ccccc2)cc1COc1ccc(F)cc1 (stereo not drawn) [Structure 272] | inactive |  |  |  |
| COc1ccc(C2Nc3ccccc3C(=O)N2Cc2ccccc2Cl)cc1COc1ccc(NC(C)=O)cc1 (stereo not drawn) [Structure 273] |  | 11.00 | 2.51 |  |
| CCC(=O)Nc1ccc(OCc2cc(C3Nc4ccccc4C(=O)N3Cc3ccccc3)ccc2OC)cc1 (stereo not drawn) [Structure 275] |  | 23.50 | 7.94 |  |
| COc1ccc(C2Nc3ccccc3C(=O)N2CC(C)(C)C)cc1COc1ccc(NC(C)=O)cc1 (stereo not drawn) [Structure 276] |  | 32.00 | 25.1 |  |
| O=C(c1ccccc1O)N(Cc1cccs1)Cc1cccs1 [Structure 277] | inactive |  |  |  |
| COc1ccc(C2Nc3ccccc3C(=O)N2Cc2ccccc2C)cc1COc1ccc(NC(C)=O)cc1 (stereo not drawn) [Structure 280] |  |  | 17.8 | Emax (human TSHR [2]; read-out: Maximum Activity compared to TSH, 100% activity = response of 30 mU/ml TSH, 0% = DMSO control): 24% |
| COc1ccc(C2Nc3ccccc3C(=O)N2Cc2ccccc2C)cc1COc1ccc(NC(C)=O)cc1 (stereo not drawn) [Structure 281] |  | 22.00 | 5.62 |  |
| COc1ccc(C2Nc3ccccc3C(=O)N2Cc2ccco2)cc1COc1c(C)cccc1C (stereo not drawn) [Structure 284] | inactive |  |  |  |
| COc1ccc(CNCc2ccccc2)cc1COc1ccc(NC(C)=O)cc1 [Structure 285] | inactive |  |  |  |
| COc1ccc(C2Nc3ccccc3C(=O)N2Cc2ccco2)cc1COc1ccc([N+](=O)[O-])cc1 (stereo not drawn) [Structure 289] | inactive |  |  |  |
| COc1ccc(C2Nc3ccccc3C(=O)N2Cc2ccco2)cc1COc1ccc([N+](=O)[O-])cc1 (stereo not drawn) [Structure 290] | inactive |  |  |  |

The next lines start with results.

| AC50 (human TSHR [2]) | Maximum Activity compared to TSH (human TSHR [2]) | AC50 (human TSHR [2]; read-out: AC50) [µM] | Structure (SMILES) | further results |
| --- | --- | --- | --- | --- |
| inactive |  |  | COc1ccc(C2Nc3ccccc3C(=O)N2Cc2ccccc2)cc1COc1ccc(NC(=O)c2ccccc2)cc1 (stereo not drawn) [Structure 263] |  |
| inactive |  |  | COc1ccc(C2Nc3ccccc3C(=O)N2Cc2ccccc2)cc1COc1ccc(NC(=O)c2ccccc2)cc1 (stereo not drawn) [Structure 264] |  |
| inactive |  |  | CC(C)c1ccc(C2C3=C(CC(c4ccco4)CC3=O)Nc3nc(C(F)(F)F)nn32)cc1 (stereo not drawn) [Structure 268] |  |
| inactive |  |  | COc1ccc(C2Nc3ccccc3C(=O)N2Cc2ccccc2)cc1COc1ccc(C(N)=O)cc1 (stereo not drawn) [Structure 270] |  |
|  | 28.00 | 20 | COc1ccc(C2Nc3cccc(OC)c3C(=O)N2Cc2ccccc2)cc1COc1ccc(NC(C)=O)cc1 (stereo not drawn) [Structure 274] |  |
| inactive |  |  | COc1ccc(C2Nc3ccccc3C(=O)N2Cc2ccccc2)cc1COc1cccc(Cl)c1 (stereo not drawn) [Structure 278] |  |
|  | 20.50 | 4.47 | COc1ccc(C2Nc3ccccc3C(=O)N2Cc2ccccc2OC)cc1COc1ccc(NC(C)=O)cc1 (stereo not drawn) [Structure 279] |  |
| inactive |  |  | COc1ccc(C2Nc3ccccc3C(=O)N2Cc2ccco2)cc1COc1ccc(N)cc1 (stereo not drawn) [Structure 282] |  |
|  | 30.00 | 22.4 | O=C(c1ccccc1O)N(Cc1ccccc1)Cc1cccs1 [Structure 287] |  |
|  | 20.50 | 2.24 | COc1ccc(C2Nc3ccccc3C(=O)N2Cc2cccc3ccccc23)cc1COc1ccc(NC(C)=O)cc1 (stereo not drawn) [Structure 288] |  |
|  | 38.00 | 35.5 | COc1ccc(CN(Cc2ccccc2)C(=O)c2ccccc2O)cc1 [Structure 291] |  |
| inactive |  |  | COc1ccc(-c2nc3ccc(NC(=O)CO)cc3c(=O)n2Cc2cccc(Cl)c2)cc1COc1ccc(NC(C)=O)cc1 [Structure 292] |  |
| inactive |  |  | COc1ccc(CN2C(=O)N(c3ccccc3)C(=O)C2c2ccccc2)cc1COc1ccc(NC(C)=O)cc1 (stereo not drawn) [Structure 293] |  |
